Measurements reported in ChEMBL document CHEMBL1201862, “PubChem BioAssay data set” (2004).
Calls of active or inactive are those of the source.

How the values were obtained:
Kallikrein-7 = Kallikrein-7 (Homo sapiens, UniProt P49862); assay: Fluorescence Intensity-based biochemical primary high throughput dose response assay to identify activators of kallikrein-7 (K7) zymogen.
Prothrombin = Prothrombin (Homo sapiens, UniProt P00734); assay: Thrombin 1536 HTS Dose Response Confirmation. [Related pubchem assays: 1046 (Thrombin 1536 HTS; hits were confirmed in this assay)]; assay type: functional
[1] = cytotoxicity toward NIH3T3 fibroblasts, dose response, counter-screen, cell-based, ATP luminescence, mouse fibroblasts (AID 2010); assay type: functional;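 also: cells exposed to compound for about 90 hours before reading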
[2] = inhibitors of intracellular T. cruzi replication, confirmation, NIH3T3 host cells, beta-gal luminescence (AID 2044); assay type: functional, cell-based;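 also: intracellular parasites grown in NIH/3T3 mouse fibroblasts as host cells; luminescent beta-galactosidase reporter signal from transgenic T. cruzi replicating inside host cells; inhibitors lower the luminescence signal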
[3] = HCT116 cell viability decrease, GSK3B pretreatment – CellTiter-Glo, IC50, dose response (AID 1117339); assay type: functional; conditions: HCT-116
[4] = cytotoxicity toward HCT116 cells – cell-based, CellTiter-Glo luminescence, IC50, dose response (AID 1117332); assay type: functional; conditions: HCT-116
[5] = cytotoxicity toward HT-29 cells – cell-based, CellTiter-Glo luminescence, IC50, dose response (AID 1117330); assay type: functional
[6] = Concentration-dependent survival of SW480 colon cancer line, luminescence detection with CellTiter-Glo, half-maximal inhibitory concentration (AID 1117338); assay type: functional
[7] = CellTiter-Glo luminescent dose response of DLD-1 viability loss (AID 1117352); assay type: functional
[8] = cytotoxicity toward Colo320 cells – cell-based, CellTiter-Glo luminescence, IC50, dose response (AID 1117334); assay type: functional; conditions: COLO 320
[9] = RKO cell viability reduction, dose response, CellTiter-Glo luminescence (AID 1117322); assay type: functional
[10] = SNU-C1 cell viability reduction, dose response, CellTiter-Glo luminescence (AID 1117323); assay type: functional, cell-based
[11] = target: T1, Long-chain-fatty-acid--AMP ligase FadD28 (Mycobacterium tuberculosis, UniProt P9WQ59); assay: Fluorescence polarization aasay to screen for inhibitors that compete for the binding of FadD28 to a bisubstrate Measured in Biochemical System Using Plate Reader - 2147-01_Inhibitor_Dose_CherryPick_Activity.; assay type: functional, Mycobacterium tuberculosis H37Rv
T1 sequence (P9WQ59 whole entry): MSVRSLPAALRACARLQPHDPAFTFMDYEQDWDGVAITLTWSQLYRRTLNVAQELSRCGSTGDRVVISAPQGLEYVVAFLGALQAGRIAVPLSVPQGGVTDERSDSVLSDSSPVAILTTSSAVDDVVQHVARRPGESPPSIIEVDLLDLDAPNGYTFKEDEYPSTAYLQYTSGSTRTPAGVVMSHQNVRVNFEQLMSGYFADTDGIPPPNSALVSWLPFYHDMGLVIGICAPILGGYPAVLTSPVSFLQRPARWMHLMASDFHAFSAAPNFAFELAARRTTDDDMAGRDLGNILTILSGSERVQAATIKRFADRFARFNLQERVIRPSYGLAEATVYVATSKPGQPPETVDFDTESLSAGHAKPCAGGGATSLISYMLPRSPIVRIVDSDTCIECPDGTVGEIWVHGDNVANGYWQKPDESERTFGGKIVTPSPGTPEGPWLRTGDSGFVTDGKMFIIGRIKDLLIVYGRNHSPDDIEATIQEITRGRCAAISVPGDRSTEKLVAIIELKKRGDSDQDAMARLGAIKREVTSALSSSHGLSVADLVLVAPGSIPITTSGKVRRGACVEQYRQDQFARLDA

Major prion protein = Major prion protein (Homo sapiens, UniProt P04156); assay type: functional, cell-based
cells [12] = assay: cells
cells [13] = assay type: functional, cell-based
cells [14] = assay type: functional, cell-based; remark: listed apart in the source
[15] = P. falciparum ATP4 D1247Y mutant growth inhibitors, dose response, NITD609-resistant line, SYBR Green, dry powder (AID 1159571); assay type: functional, cell-based;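 also: parasites synchronized at ring stage by sorbitol before testing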
[16] = HepG2 cell cytotoxicity, dose response, cytotoxicity control, plate reader, dry powder samples (AID 1159569); assay type: functional, cell-based;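 also: inhibitor potency with signal falling toward the positive control level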
[17] = P. falciparum 3D7-ScDHODH growth inhibitors, dose response, SYBR Green, dry powder samples (AID 1159570); assay type: functional, cell-based;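 also: parasite growth measured after 72 hours of compound exposure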
[18] = P. falciparum Dd2 growth inhibitors, dose response, SYBR Green, cherry-picked samples (AID 1159567); assay type: functional, cell-based
[19] = P. falciparum Dd2 growth inhibitors, dose response, SYBR Green, dry powder samples (AID 1159566); assay type: functional, cell-based;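 also: potency for growth inhibition with lower SYBR green DNA signal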

Structure (SMILES): O=c1c2cc(N3CCOCC3)ccc2[nH]c(=S)n1CCCN1CCCCC1
- EC50 (Kallikrein-7): 29.7 µM (inactive)

Structure (SMILES): Cc1oc2c(c(C)cc3oc(=O)c(CC(=O)N[C@@H](CCCNC(N)=O)C(=O)O)c(C)c32)c1C
- EC50 (Kallikrein-7): 69.3 µM (inactive)

Structure (SMILES): COC(=O)c1ccc(COC(=O)CNS(=O)(=O)c2ccccc2)cc1
- IC50 (Prothrombin): > 50 µM (not active)

Structure (SMILES): Cc1cc(C)c2c3c(sc2n1)C(c1cccc(F)c1)C(C#N)=C(N)O3 (centres undefined)
- EC50 [1]: > 30 µM (not active)
- IC50 (Prothrombin): > 50 µM (not active)
- EC50 [2]: 0.191 µM (active)

Structure (SMILES): COCC(C)N(C(=O)CCl)c1c(C)csc1C (centres undefined)
- IC50 [3]: > 20 µM (inactive)
- IC50 [4]: > 20 µM (inactive)
- IC50 [5]: > 20 µM (inactive)
- IC50 [6]: > 20 µM (inactive)
- IC50 [7]: > 20 µM (inactive)
- IC50 [8]: > 20 µM (inactive)
- IC50 [9]: > 20 µM (inactive)
- IC50 [10]: > 20 µM (inactive)

Structure (SMILES): CCc1c(O)n(-c2ccccc2)c(SCC(=O)Nc2nc3ccccc3s2)nc1=O
- AC50 [11]: > 100 µM (inactive)

Structure (SMILES): COc1ccc(OC)c(C2NC(=O)N(C)C(C)=C2C(=O)OCc2ccccc2)c1 (centres undefined)
- IC50 (Major prion protein): 6.04 µM (active)
- IC50 (cells [12]): > 138 µM (inactive)

Structure (SMILES): COc1ccc(-c2nc3c(C)cc(Br)cn3c2Cc2cccc(Cl)c2)cc1OC
- IC50 (Major prion protein): 7.52 µM (active)
- IC50 (cells [12]): > 138 µM (inactive)

Structure (SMILES): c1ccc(N/N=C(\Cc2ncc[nH]2)c2ccccc2)cc1
- IC50 (cells [13]): > 29.9 µM (inactive)
- EC50 (cells [14]): > 29.9 µM (inactive)

Structure (SMILES): CN(C)C(=O)c1cccc(-c2cccc(-c3nc(C(=O)NC4CCCCC4)cc4c3[C@@H](CCO)N([S@+]([O-])C(C)(C)C)C4)c2)c1
- AC50 [15]: 0.484 µM (active)
- AC50 [16]: 31.4 µM (active)
- AC50 [17]: 0.806 µM (active)
- AC50 [18]: 1.62 µM (active)
- AC50 [19]: 0.232 µM (active)

Structure (SMILES): O=C(Nc1cccc(F)c1)N1CCCCN2[C@@H](CO)[C@H](c3ccc(C#Cc4cccnc4)cc3)[C@@H]2C1
- AC50 [15]: 0.425 µM (active)
- AC50 [16]: 28.4 µM (active)
- AC50 [17]: 0.247 µM (active)
- AC50 [18]: 0.606 µM (active)
- AC50 [19]: 0.368 µM (active)

Structure (SMILES): CCCCCCCCCCCCCCCCC(C(=O)O)C(O)(CC(=O)O)C(=O)O (centres undefined)
- IC50 [3]: 4.34 µM (active)
- IC50 [4]: 8.68 µM (inactive)
- IC50 [5]: 4.1 µM (active)
- IC50 [6]: 1.2 µM (active)
- IC50 [7]: 4.28 µM (active)
- IC50 [8]: 1.36 µM (active)
- IC50 [9]: 3.48 µM (active)
- IC50 [10]: 1.36 µM (active)
